The record followed here is patent publication US20080200555A1, “USE OF NOREPINEPHRINE REUPTAKE INHIBITORS FOR THE TREATMENT OF TIC DISORDERS” (priority 2001, published 2008).

A short description of the test: Case report: atomoxetine treatment of a person with ADHD and tics (Example 1). It is filed as in vivo, human. The source says: A person presented with ADHD and tics. […] At baseline, the tics included multiple motor and multiple vocal tics, some complex or in bouts. Their vocal tics were especially problematic and disruptive, causing difficulties for the child at school, in social situations, and when the family went out in public (for example, to a restaurant). The clinical global impression-severity score (CGI-S) is a seven-point scale (1=normal, 7=very severely ill) that summarizes a clinician's overall impression about how severe a patient's illness is compared to other patients the clinician has treated. Based on the parent's report, the retrospective CGI-S score for the child's tics at baseline was 5, markedly ill. The YGTSS is the Yale Global Tic Severity Scale and summarizes the number, severity and frequency of a patient's tics. The minimum score on the YGTSS is zero and the maximum is 50. Based on the parent's description the patient's baseline YGTSS was about 30.
After about 2 to 3 weeks of atomoxetine treatment, the patient's parent reported a single head tic and a few eye blinking tics in the previous week, and no vocal tics. The parent also reported that the patient's complex tics or compulsive behaviors (which had involved them playing with some doors with their feet in a somewhat stereotypical manner), had also stopped. […] The CGI-S score for the child's tics based on the interview with their parent was […], minimally ill. Based on the same interview, the YGTSS total score for the child was 8. The clinical global impression-improvement (CGI-I) score is a seven-point scale (1=very much improve, 7=very much worse) that summarizes a clinician's overall impression about how much a patient has improved with treatment as compared to where they were at baseline. The CGI-I score for the patient's tics was 1, very much improved.

Setting [1] is: after about 2 to 3 weeks of atomoxetine treatment.

For the molecule `CNCC[C@@H](Oc1ccccc1C)c1ccccc1` [atomoxetine, (R)-(−)-N-methyl-3-(2-methylphenoxy)-3-phenylpropylamine], under setting [1], the “complex tics or compulsive behaviors (mother's report)” value was “stopped” and the “vocal tics in the previous week (mother's report)” value was “no vocal tics”. In addition, under “person with ADHD and tics, after about 2 to 3 weeks of atomoxetine treatment, scale 0 to 50, baseline about 30”, the “YGTSS (Yale Global Tic Severity Scale) total score” value turned out to be 8. Further, the “clinical global impression-severity score (CGI-S) for the child's tics” value (person with ADHD and tics, after about 2 to 3 weeks of atomoxetine treatment, seven-point scale (1=normal, 7=very severely ill), baseline 5) came out at 2a. Besides, the “change in tics after starting treatment” value (person with ADHD and tics, after starting on atomoxetine) is on record as “dramatic drop”. For the same molecule, the ADHD result (person with ADHD and tics, on atomoxetine treatment) is reported as “improved”. In addition, for the setting “person with ADHD and tics, seven-point scale (1=very much improve, 7=very much worse), compared to baseline”, the “clinical global impression-improvement (CGI-I) score for the patient's tics” value worked out at 1.
